Laboratory results published in patent US4438104A, “Endorphins having placental or pancreatic origin” (Endorphin, Inc., priority 1982, dated 1984).

What was measured:
mice = conditions: stated as known characteristic; cited from earlier work
Balb/C mice = test: Delay in tail-flick in mice from a standardized heat injury; assay type: in vivo
Experimental: Using p-endorphin as prepared in Example 2 tests of the delay in tail-flick in mice from a standardized heat injury were conducted under our direction and control as follows: Inbred mice (in this case Balb/C males weighing 20 to 25 gms) were held in a special body holder in cotton and a standardized "heat-run" or lamp was held a standardized distance away from the base of the tail which was painted black with india ink to increase the amount of energy it absorbs. On the average, 3.5 seconds of this heat is enough to cause these mice to flick their tail in a vigorous fashion. This end-point is unmistakable. The standard deviation of 50 determinations of this kind is approximately 0.7 seconds. Therefore, the normal range of large numbers of these mice with multiple determinations would be about 2.2 to 4.8 seconds.
The data set forth below in Table 1 illustrate the amount of time for the onset of tail flicking by mice tested at various times after the injection of […] of p-endorphin (P-EP).

For “beta-endorphin (YGGFMTSEKSQTPLVTLFKNAIIKNAYKKGE; Beta-endorphin; UniProt P01189 237-267, looked up) [endogenous opioid peptide hormone, 61 to 91 portion of beta lipotropin; standard]”, which Staub tail (mice) is on record?
Its Staub tail is “characteristic”.

What about the delay in tail-flick (Balb/C mice; mice) of the same substance?
The delay in tail-flick was “more than 10 seconds”.

What about the “amount required to obtain the same in vivo effect” value (Balb/C mice; same tail-flick effect as 30 μg P-EP preparation) of the same substance?
The value was “about 0.8 nanamoles per mouse”.
